These molecules were tested against T1, recombinant human baculovirus-expressed GST-tagged FASN (Homo sapiens, UniProt P49327) (assay: biochemical). Conditions: not given.
T1 construct: GST
T1 sequence (P49327 whole entry): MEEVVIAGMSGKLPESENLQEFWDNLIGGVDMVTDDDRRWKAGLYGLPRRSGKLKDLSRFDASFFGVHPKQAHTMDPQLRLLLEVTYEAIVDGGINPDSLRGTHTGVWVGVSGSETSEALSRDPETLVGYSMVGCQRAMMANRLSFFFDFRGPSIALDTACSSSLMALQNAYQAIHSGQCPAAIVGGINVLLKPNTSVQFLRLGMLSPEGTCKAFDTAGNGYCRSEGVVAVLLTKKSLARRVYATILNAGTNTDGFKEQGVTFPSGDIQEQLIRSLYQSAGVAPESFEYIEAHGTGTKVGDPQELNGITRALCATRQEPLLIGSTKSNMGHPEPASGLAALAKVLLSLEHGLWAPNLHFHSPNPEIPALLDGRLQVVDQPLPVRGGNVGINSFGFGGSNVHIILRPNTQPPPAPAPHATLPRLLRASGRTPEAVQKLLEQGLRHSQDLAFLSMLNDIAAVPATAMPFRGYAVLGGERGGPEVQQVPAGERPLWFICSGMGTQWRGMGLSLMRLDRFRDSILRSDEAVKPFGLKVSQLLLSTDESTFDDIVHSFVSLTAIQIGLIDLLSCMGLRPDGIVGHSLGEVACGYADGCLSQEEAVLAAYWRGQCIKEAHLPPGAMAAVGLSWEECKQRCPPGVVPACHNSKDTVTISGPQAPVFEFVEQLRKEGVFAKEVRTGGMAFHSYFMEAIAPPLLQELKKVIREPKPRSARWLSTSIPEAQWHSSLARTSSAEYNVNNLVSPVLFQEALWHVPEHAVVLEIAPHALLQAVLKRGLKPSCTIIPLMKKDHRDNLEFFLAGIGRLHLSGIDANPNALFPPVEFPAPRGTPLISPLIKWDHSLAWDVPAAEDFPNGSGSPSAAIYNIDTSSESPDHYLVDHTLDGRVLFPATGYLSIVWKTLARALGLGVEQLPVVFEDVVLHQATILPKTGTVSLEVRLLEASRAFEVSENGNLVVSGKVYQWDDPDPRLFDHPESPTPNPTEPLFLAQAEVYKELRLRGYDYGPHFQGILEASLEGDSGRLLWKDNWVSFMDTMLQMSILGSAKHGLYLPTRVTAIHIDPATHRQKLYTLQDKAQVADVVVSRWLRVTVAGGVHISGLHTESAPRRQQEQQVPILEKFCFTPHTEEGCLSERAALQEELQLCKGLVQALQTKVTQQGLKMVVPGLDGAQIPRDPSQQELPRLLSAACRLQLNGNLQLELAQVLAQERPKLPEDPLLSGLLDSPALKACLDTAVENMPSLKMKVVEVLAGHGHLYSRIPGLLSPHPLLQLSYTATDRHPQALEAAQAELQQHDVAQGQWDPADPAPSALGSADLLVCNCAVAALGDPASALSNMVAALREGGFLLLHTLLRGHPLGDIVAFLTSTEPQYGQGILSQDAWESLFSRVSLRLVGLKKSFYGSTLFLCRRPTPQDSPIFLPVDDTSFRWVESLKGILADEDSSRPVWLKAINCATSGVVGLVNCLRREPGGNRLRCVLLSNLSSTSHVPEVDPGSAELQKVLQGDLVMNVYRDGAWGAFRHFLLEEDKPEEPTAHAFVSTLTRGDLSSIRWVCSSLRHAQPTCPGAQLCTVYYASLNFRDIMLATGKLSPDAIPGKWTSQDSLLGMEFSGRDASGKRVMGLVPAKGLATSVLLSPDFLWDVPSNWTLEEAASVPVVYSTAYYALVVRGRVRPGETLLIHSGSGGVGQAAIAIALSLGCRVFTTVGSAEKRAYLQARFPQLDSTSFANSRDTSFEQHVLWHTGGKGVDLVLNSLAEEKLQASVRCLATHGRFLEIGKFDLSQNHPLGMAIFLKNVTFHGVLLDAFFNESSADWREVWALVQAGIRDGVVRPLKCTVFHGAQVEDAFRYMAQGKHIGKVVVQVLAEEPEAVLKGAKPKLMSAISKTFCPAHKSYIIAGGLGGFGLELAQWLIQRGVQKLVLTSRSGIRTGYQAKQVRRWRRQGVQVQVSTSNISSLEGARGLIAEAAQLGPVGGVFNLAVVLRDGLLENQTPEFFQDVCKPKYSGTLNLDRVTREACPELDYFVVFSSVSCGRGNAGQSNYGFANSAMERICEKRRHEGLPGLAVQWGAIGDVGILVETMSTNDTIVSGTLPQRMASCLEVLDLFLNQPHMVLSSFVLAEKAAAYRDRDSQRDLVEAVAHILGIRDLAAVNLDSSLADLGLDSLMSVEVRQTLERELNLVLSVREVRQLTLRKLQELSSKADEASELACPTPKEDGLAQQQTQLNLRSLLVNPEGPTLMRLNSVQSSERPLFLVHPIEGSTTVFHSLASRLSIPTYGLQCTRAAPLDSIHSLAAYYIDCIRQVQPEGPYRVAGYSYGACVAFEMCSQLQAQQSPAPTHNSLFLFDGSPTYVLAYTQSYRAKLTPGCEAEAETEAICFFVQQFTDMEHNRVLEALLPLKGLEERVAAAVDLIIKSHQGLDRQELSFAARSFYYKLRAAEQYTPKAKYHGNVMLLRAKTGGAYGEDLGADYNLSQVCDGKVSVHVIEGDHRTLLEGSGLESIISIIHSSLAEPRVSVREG
Work on `COc1c(-c2ccc3c(c2)COC2(CCN(C(N)=O)CC2)O3)ccc2cccnc12` [Example 174, 6-(8-Methoxy-7-quinolyl)spiro[4H-1,3-benzodioxine-2,4′-piperidine]-1′-carboxamide] yielded an IC50 of 1 to 99 nM.
`CCOC(=O)N1CCC2(CC1)OCc1cc(-c3ccc4cccnc4c3OC)ccc1O2` [Example 176, Ethyl 6-(8-methoxy-7-quinolyl)spiro[4H-1,3-benzodioxine-2,4′-piperidine]-1′-carboxylate] showed an IC50 of 100 to 999 nM.
For `Cc1nccc2cc(-c3ccc4c(c3)COC3(CCN(C(=O)NOC(C)C)CC3)O4)ccc12` [Example 182, N-Isopropoxy-6-(1-methyl-6-isoquinolyl)spiro[4H-1,3-benzodioxine-2,4′-piperidine]-1′-carboxamide], the IC50 was 1 to 99 nM.
With `Cc1nccc2cc(-c3ccc4c(c3)COC3(CCN(C(N)=O)CC3)O4)ccc12` [Example 194, 6-(1-Methyl-6-isoquinolyl)spiro[4H-1,3-benzodioxine-2,4′-piperidine]-1′-carboxamide] the IC50 was 100 to 999 nM.
With `CONC(=O)N1CCC2(CC1)OCc1cc(-c3ccc4c(C)nccc4c3)ccc1O2` [Example 195, N-methoxy-6-(1-methyl-6-isoquinolyl)spiro[4H-1,3-benzodioxine-2,4′-piperidine]-1′-carboxamide] the IC50 was 1 to 99 nM.
`CCONC(=O)N1CCC2(CC1)OCc1cc(-c3ccc4c(C)nccc4c3)ccc1O2` [Example 196, N-Ethoxy-6-(1-methyl-6-isoquinolyl)spiro[4H-1,3-benzodioxine-2,4′-piperidine]-1′-carboxamide] gave an IC50 of 1 to 99 nM.
For `CCNC(=O)N1CCC2(CC1)OCc1cc(-c3ccc4c(C)nccc4c3)ccc1O2` [Example 197, N-ethyl-6-(1-methyl-6-isoquinolyl)spiro[4H-1,3-benzodioxine-2,4′-piperidine]-1′-carboxamide], the IC50 was 1 to 99 nM.
Work on `CCOC(=O)N1CCC2(CC1)OCc1cc(-c3ccc4cnc(Cl)cc4c3)ccc1O2` [Example 198, Ethyl 6-(3-chloro-6-isoquinolyl)spiro[4H-1,3-benzodioxine-2,4′-piperidine]-1′-carboxylate] yielded an IC50 of 1000 to 10000 nM.

Same assay, conditions: 5 nM FASN, 150 μM NADPH, 10 μM acetyl-CoA, 25 μM malonyl-CoA, 90 minutes incubation; read-out: IC50 data for Compounds of Formula I, Activity
Molecule `CCNC(=O)N1CCC2(CC1)Cc1cc(-c3cnc4ccccc4c3C)ccc1O2` [Example 160, N-Ethyl-5-(4-methyl-3-quinolyl)spiro[3H-benzofuran-2,4′-piperidine]-1′-carboxamide] has an IC50 of 1000 to 10000 nM.
For `Cc1c(-c2ccc3c(c2)CC2(CCN(C(=O)NO)CC2)O3)cnc2ccccc12` [Example 161, 5-(4-Methyl-3-quinolyl)spiro[3H-benzofuran-2,4′-piperidine]-1′-carbohydroxamic acid], the IC50 was 1000 to 10000 nM.
Work on `COc1c(-c2ccc3c(c2)CC2(CCN(C(N)=O)CC2)O3)ccc2cccnc12` [Example 162, 5-(8-Methoxy-7-quinolyl)spiro[3H-benzofuran-2,4′-piperidine]-1′-carboxamide] yielded an IC50 of 1000 to 10000 nM.
With `CCNC(=O)N1CCC2(CC1)Cc1cc(-c3ccc4cccnc4c3OC)ccc1O2` [Example 163, N-Ethyl-5-(8-methoxy-7-quinolyl)spiro[3H-benzofuran-2,4′-piperidine]-1′-carboxamide] the IC50 was 1000 to 10000 nM.
`Cc1c(-c2ccc3c(c2)CC2(CCN(C(N)=O)CC2)O3)ccc2ccnn12` [Example 164, 5-(7-Methylpyrazolo[1,5-a]pyridin-6-yl)spiro[3H-benzofuran-2,4′-piperidine]-1′-carboxamide] was tested, and the IC50 was 1000 to 10000 nM.
In the case of `CCNC(=O)N1CCC2(CC1)Cc1cc(-c3ccc4ccnn4c3C)ccc1O2` [Example 165, N-Ethyl-5-(7-methylpyrazolo[1,5-a]pyridin-6-yl)spiro[3H-benzofuran-2,4′-piperidine]-1′-carboxamide], the IC50 is reported as 1000 to 10000 nM.
`CONC(=O)N1CCC2(CC1)Cc1cc(-c3ccc4cccnc4c3OC)ccc1O2` [Example 166, N-Methoxy-5-(8-methoxy-7-quinolyl)spiro[3H-benzofuran-2,4′-piperidine]-1′-carboxamide] was tested, and the IC50 was 1000 to 10000 nM.
`CCONC(=O)N1CCC2(CC1)Cc1cc(-c3ccc4cccnc4c3OC)ccc1O2` [Example 167, N-Ethoxy-5-(8-methoxy-7-quinolyl)spiro[3H-benzofuran-2,4′-piperidine]-1′-carboxamide] showed an IC50 of 1000 to 10000 nM.
For `COc1c(-c2ccc3c(c2)CC2(CCN(C(=O)NOC4CCCCO4)CC2)O3)ccc2cccnc12` (stereo not drawn) [Example 168, 5-(8-Methoxy-7-quinolyl)-N-tetrahydropyran-2-yloxy-spiro[3H-benzofuran-2,4′-piperidine]-1′-carboxamide], the IC50 was 1000 to 10000 nM.
For `CCONC(=O)N1CCC2(CC1)Cc1cc(-c3ccc4ccnn4c3C)ccc1O2` [Example 169, N-Ethoxy-5-(7-methylpyrazolo[1,5-a]pyridin-6-yl)spiro[3H-benzofuran-2,4′-piperidine]-1′-carboxamide], the IC50 was 1000 to 10000 nM.
With `CONC(=O)N1CCC2(CC1)Cc1cc(-c3ccc4ccnn4c3C)ccc1O2` [Example 170, N-Methoxy-5-(7-methylpyrazolo[1,5-a]pyridin-6-yl)spiro[3H-benzofuran-2,4′-piperidine]-1′-carboxamide] the IC50 was 1000 to 10000 nM.
For `Cc1c(-c2ccc3c(c2)CC2(CCN(C(=O)NOC4CCCCO4)CC2)O3)ccc2ccnn12` (stereo not drawn) [Example 171, 5-(7-Methylpyrazolo[1,5-a]pyridin-6-yl)-N-tetrahydropyran-2-yloxy-spiro[3H-benzofuran-2,4′-piperidine]-1′-carboxamide], the IC50 was 1000 to 10000 nM.
With `Cc1c(-c2ccc3c(c2)CCC2(CCN(C(N)=O)CC2)O3)ccc2ccc(=O)[nH]c12` [Example 172, 6-(8-Methyl-2-oxo-1H-quinolin-7-yl)spiro[chromane-2,4′-piperidine]-1′-carboxamide] the IC50 was 1000 to 10000 nM.
For `COc1c(-c2ccc3c(c2)CC2(CCN(C(=O)NO)CC2)O3)ccc2cccnc12` [Example 173, 5-(8-Methoxy-7-quinolyl)spiro[3H-benzofuran-2,4′-piperidine]-1′-carbohydroxamic acid], the IC50 was 1000 to 10000 nM.
Work on `COc1c(-c2ccc3c(c2)CCC2(CCN(C(N)=O)CC2)O3)ccc2cccnc12` [Example 175, 6-(8-Methoxy-7-quinolyl)spiro[chromane-2,4′-piperidine]-1′-carboxamide] yielded an IC50 of 1 to 99 nM.
For `CC(C)CNC(=O)N1CCC2(CCc3cc(-c4ccc5nccn5c4Cl)ccc3O2)CC1` [Example 177, 6-(5-Chloroimidazo[1,2-a]pyridin-6-yl)-N-isobutyl-spiro[chromane-2,4′-piperidine]-1′-carboxamide], the IC50 was 1 to 99 nM.
Work on `Cc1nccc2cc(-c3ccc4c(c3)CCC3(CCN(C(=O)NCC(C)C)CC3)O4)ccc12` [Example 178, N-Isobutyl-6-(1-methyl-6-isoquinolyl)spiro[chromane-2,4′-piperidine]-1′-carboxamide] yielded an IC50 of 1 to 99 nM.
Molecule `CC(C)ONC(=O)N1CCC2(CCc3cc(-c4ccc5nccn5c4Cl)ccc3O2)CC1` [Example 179, 6-(5-Chloroimidazo[1,2-a]pyridin-6-yl)-N-isopropoxy-spiro[chromane-2,4′-piperidine]-1′-carboxamide] has an IC50 of 1 to 99 nM.
`Cc1nccc2cc(-c3ccc4c(c3)CCC3(CCN(C(=O)NOC(C)C)CC3)O4)ccc12` [Example 180, N-Isopropoxy-6-(1-methyl-6-isoquinolyl)spiro[chromane-2,4′-piperidine]-1′-carboxamide] was tested, and the IC50 was 1 to 99 nM.
`CCONC(=O)N1CCC2(CCc3cc(-c4cnc5ccccc5c4C)ccc3O2)CC1` [Example 181, N-Ethoxy-6-(4-methyl-3-quinolyl)spiro[chromane-2,4′-piperidine]-1′-carboxamide] showed an IC50 of 1 to 99 nM.
With `Cc1nccc2cc(-c3ccc4c(c3)CCC3(CCN(C(N)=O)CC3)O4)ccc12` [Example 183, 6-(1-Methyl-6-isoquinolyl)spiro[chromane-2,4′-piperidine]-1′-carboxamide] the IC50 was 100 to 999 nM.
`CONC(=O)N1CCC2(CCc3cc(-c4ccc5c(C)nccc5c4)ccc3O2)CC1` [Example 184, N-methoxy-6-(1-methyl-6-isoquinolyl)spiro[chromane-2,4′-piperidine]-1′-carboxamide] was tested, and the IC50 was 1 to 99 nM.
`CCONC(=O)N1CCC2(CCc3cc(-c4ccc5c(C)nccc5c4)ccc3O2)CC1` [Example 185, N-ethoxy-6-(1-methyl-6-isoquinolyl)spiro[chromane-2,4′-piperidine]-1′-carboxamide] gave an IC50 of 1 to 99 nM.
In the case of `CCCONC(=O)N1CCC2(CCc3cc(-c4ccc5c(C)nccc5c4)ccc3O2)CC1` [Example 186, 6-(1-Methyl-6-isoquinolyl)-N-propoxy-spiro[chromane-2,4′-piperidine]-1′-carboxamide], the IC50 is reported as 1 to 99 nM.
`CCNC(=O)N1CCC2(CCc3cc(-c4ccc5c(C)nccc5c4)ccc3O2)CC1` [Example 187, N-Ethyl-6-(1-methyl-6-isoquinolyl)spiro[chromane-2,4′-piperidine]-1′-carboxamide] gave an IC50 of 1 to 99 nM.
With `CCCNC(=O)N1CCC2(CCc3cc(-c4ccc5c(C)nccc5c4)ccc3O2)CC1` [Example 188, 6-(1-methyl-6-isoquinolyl)-N-propyl-spiro[chromane-2,4′-piperidine]-1′-carboxamide] the IC50 was 1 to 99 nM.
Work on `Cc1nccc2cc(-c3ccc4c(c3)CCC3(CCN(C(=O)NO)CC3)O4)ccc12` [Example 189, 6-(1-Methyl-6-isoquinolyl)spiro[chromane-2,4′-piperidine]-1′-carbohydroxamic acid] yielded an IC50 of 1000 to 10000 nM.
With `Cc1c(-c2ccc3c(c2)CCC2(CCN(C(N)=O)CC2)O3)cnc2ccccc12` [Example 190, 6-(4-methyl-3-quinolyl)spiro[chromane-2,4′-piperidine]-1′-carboxamide] the IC50 was 1 to 99 nM.
`Cc1c(-c2ccc3c(c2)CCC2(CCN(C(=O)NO)CC2)O3)cnc2ccccc12` [Example 191, 6-(4-Methyl-3-quinolyl)spiro[chromane-2,4′-piperidine]-1′-carbohydroxamic acid] showed an IC50 of 100 to 999 nM.
`CONC(=O)N1CCC2(CCc3cc(-c4cnc5ccccc5c4C)ccc3O2)CC1` [Example 192, N-Methoxy-6-(4-methyl-3-quinolyl)spiro[chromane-2,4′-piperidine]-1′-carboxamide] showed an IC50 of 1 to 99 nM.
For `Cc1c(-c2ccc3c(c2)CCC2(CCN(C(=O)NOC(C)C)CC2)O3)cnc2ccccc12` [Example 193, N-isopropoxy-6-(4-methyl-3-quinolyl)spiro[chromane-2,4′-piperidine]-1′-carboxamide], the IC50 was 1 to 99 nM.
